ChEMBL document CHEMBL1128704, “(R)-11-hydroxy- and (R)-11-hydroxy-10-methylaporphine: synthesis, pharmacology, and modeling of D2A and 5-HT1A receptor interactions” (J Med Chem, 1995)

Key:
[1] = biological target: T1, 5-hydroxytryptamine receptor 1A (Rattus norvegicus, UniProt P19327); experiment: (§1) Ability to inhibit 5-HT sensitive,forskolin-stimulated adenylyl cyclase(FSC) activity in rat hippocampal membranes mediated through 5-hydroxytryptamine 1A receptor; assay type: functional, cell membranes
T1 sequence (P19327 whole entry): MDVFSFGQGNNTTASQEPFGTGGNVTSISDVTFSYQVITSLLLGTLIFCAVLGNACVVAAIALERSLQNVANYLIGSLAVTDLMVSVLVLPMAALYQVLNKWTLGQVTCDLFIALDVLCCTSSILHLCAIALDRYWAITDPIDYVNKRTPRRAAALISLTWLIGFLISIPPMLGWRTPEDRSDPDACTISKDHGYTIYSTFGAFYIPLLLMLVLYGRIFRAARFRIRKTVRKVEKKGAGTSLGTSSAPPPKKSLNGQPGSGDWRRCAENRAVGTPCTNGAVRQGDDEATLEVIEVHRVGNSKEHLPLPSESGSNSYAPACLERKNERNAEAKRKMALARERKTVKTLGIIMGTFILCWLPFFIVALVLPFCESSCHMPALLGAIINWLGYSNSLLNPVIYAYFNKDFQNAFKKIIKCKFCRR

[2] = biological target: T2, 5-hydroxytryptamine receptor 1A (Rattus norvegicus) (UniProt P19327); experiment: as §1; assay type: functional, cell membranes; conditions: concentration not given here
T2 sequence (whole entry): T1 sequence (P19327 whole entry)

[3] = biological target: T1, 5-hydroxytryptamine receptor 1A; experiment: Ability to displace [3H]8-OH-DPAT binding to rat hippocampal 5-hydroxytryptamine 1A receptor; assay type: tissue-based, Hippocampus
D(2) dopamine receptor = D(2) dopamine receptor (Homo sapiens, UniProt P14416); experiment: Ability to displace [3H]raclopride binding to cloned human Dopamine receptor D2A
Sequence of D(2) dopamine receptor (P14416 whole entry): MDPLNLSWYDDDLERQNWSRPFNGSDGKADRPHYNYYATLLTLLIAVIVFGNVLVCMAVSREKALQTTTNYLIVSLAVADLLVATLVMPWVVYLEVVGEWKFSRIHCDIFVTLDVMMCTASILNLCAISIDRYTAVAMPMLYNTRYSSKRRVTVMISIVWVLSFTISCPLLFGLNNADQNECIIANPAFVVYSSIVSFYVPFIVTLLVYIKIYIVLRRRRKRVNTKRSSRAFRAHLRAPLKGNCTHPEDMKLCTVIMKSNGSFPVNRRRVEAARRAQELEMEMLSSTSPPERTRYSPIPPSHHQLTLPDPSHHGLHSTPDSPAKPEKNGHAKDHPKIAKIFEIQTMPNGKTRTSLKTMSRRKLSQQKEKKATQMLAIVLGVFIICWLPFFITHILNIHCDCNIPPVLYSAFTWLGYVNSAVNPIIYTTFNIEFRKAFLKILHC

D(1A) dopamine receptor = D(1A) dopamine receptor (Rattus norvegicus, UniProt P18901); experiment: Ability to displace [3H]SCH-23390 binding to rat striatal Dopamine receptor D1
Sequence of D(1A) dopamine receptor (P18901 whole entry): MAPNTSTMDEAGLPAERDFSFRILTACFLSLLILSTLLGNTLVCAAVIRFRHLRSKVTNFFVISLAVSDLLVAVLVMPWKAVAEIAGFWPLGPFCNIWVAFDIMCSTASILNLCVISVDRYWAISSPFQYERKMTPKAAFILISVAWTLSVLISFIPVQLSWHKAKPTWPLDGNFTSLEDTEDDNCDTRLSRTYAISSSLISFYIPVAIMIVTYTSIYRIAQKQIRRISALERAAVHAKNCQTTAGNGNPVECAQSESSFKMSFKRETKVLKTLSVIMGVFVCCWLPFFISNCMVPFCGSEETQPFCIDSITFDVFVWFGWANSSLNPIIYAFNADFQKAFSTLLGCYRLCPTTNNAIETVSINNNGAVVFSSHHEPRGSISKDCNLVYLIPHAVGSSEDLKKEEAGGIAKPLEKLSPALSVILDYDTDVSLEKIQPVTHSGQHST

Compound	EC50 [1]	inhibition [2]	Ki [3]	Ki (D(2) dopamine receptor)	Ki (D(1A) dopamine receptor)
Cc1ccc2c(c1O)-c1cccc3c1[C@@H](C2)N(C)CC3	55 nM	102%	0.45 nM	1070 nM	382 nM
CN1CCc2cccc3c2[C@H]1Cc1cccc(O)c1-3	5200 nM	60%	9.6 nM	58.5 nM	20.4 nM
